Tests used:
[1] = molecular target: protein S (S:D614G) (Severe acute respiratory syndrome coronavirus 2, UniProt P0DTC2, D614G); parameters: species or system SARS-CoV-2
[2] = molecular target: RBDWuhan (SARS-CoV-2 spike RBD, Wuhan-Hu-1 variant) (Severe acute respiratory syndrome coronavirus 2, UniProt P0DTC2); assay type: binding; settings: read-out: K D values RBDWuhan
[3] = molecular target: SWuhan (SARS-CoV-2 S protein HexaPro, Wuhan-Hu-1 variant) (Severe acute respiratory syndrome coronavirus 2, UniProt P0DTC2, A892P/A899P/A942P/F817P/K986P/V987P); assay type: binding; settings: read-out: K D values SWuhan
[4] = molecular target: RBDBA.1 (SARS-CoV-2 spike RBD, Omicron BA.1 variant) (Severe acute respiratory syndrome coronavirus 2, UniProt P0DTC2, E484A/G339D/G446S/G496S/K417N/N440K/N501Y/Q493R/Q498R/S371L/S373P/S375F/S477N/T478K/Y505H); assay type: binding; settings: read-out: K D values RBDBA.1
[5] = molecular target: SBA.1 (SARS-CoV-2 S protein, Omicron BA.1 variant) (Severe acute respiratory syndrome coronavirus 2, UniProt P0DTC2, A67V/D614G/D796Y/DEL143-145/DEL211-211/DEL69-70/E484A/G142D/G339D/G446S/G496S/H655Y/INS214EPE/K417N/L212I/L981F/N440K/N501Y/N679K/N764K/N856K/N969K/P681H/Q493R/Q498R/Q954H/S371L/S373P/S375F/S477N/T478K/T547K/T95I/Y505H, form not given); assay type: binding; settings: read-out: K D values SBA.1

Row | Compound | architecture of spikes by negative-stain electron microscopy [1] | Kd [2] | Kd [3] | Kd [4] | Kd [5]
1 | CCCCCCCCc1ccc(CCC(N)(CO)CO)cc1 [fingolimod] | do not damage the architecture of the proteins | – | – | – | –
2 | catechin | – | > 1 mM | 0.927 ± 0.076 mM | > 1 mM | > 1 mM
